pIC50: −log10 of the molar value.
Target: mouse TRPM3α2 (mTRPM3) ion channel (Mus musculus (Mouse), UniProt J9SQF3)
Assay: TRPM3 ion channel driven Ca2+ uptake, Fluo-4 AM assay, mTRPM3alpha2 overexpressing flip-in HEK293 cells stimulated with pregnenolone sulfate
Format: cell-based
Conditions: PS 50 μM, cpds 200-299
Summary of the method: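 Read-out is Ca2+ influx via Fluo-4 AM fluorescence at 485/535 nm, taken right after seeding ~2000 cells/well onto compound with 50 μM PS. Inhibition computed from RFU between vehicle-stimulated and positive-control-inhibitor wells; cells were mTRPM3α2-overexpressing flip-in HEK293.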

mouse TRPM3α2 (mTRPM3) ion channel, sequence (J9SQF3 other isoform, or with tags, fused parts or gaps): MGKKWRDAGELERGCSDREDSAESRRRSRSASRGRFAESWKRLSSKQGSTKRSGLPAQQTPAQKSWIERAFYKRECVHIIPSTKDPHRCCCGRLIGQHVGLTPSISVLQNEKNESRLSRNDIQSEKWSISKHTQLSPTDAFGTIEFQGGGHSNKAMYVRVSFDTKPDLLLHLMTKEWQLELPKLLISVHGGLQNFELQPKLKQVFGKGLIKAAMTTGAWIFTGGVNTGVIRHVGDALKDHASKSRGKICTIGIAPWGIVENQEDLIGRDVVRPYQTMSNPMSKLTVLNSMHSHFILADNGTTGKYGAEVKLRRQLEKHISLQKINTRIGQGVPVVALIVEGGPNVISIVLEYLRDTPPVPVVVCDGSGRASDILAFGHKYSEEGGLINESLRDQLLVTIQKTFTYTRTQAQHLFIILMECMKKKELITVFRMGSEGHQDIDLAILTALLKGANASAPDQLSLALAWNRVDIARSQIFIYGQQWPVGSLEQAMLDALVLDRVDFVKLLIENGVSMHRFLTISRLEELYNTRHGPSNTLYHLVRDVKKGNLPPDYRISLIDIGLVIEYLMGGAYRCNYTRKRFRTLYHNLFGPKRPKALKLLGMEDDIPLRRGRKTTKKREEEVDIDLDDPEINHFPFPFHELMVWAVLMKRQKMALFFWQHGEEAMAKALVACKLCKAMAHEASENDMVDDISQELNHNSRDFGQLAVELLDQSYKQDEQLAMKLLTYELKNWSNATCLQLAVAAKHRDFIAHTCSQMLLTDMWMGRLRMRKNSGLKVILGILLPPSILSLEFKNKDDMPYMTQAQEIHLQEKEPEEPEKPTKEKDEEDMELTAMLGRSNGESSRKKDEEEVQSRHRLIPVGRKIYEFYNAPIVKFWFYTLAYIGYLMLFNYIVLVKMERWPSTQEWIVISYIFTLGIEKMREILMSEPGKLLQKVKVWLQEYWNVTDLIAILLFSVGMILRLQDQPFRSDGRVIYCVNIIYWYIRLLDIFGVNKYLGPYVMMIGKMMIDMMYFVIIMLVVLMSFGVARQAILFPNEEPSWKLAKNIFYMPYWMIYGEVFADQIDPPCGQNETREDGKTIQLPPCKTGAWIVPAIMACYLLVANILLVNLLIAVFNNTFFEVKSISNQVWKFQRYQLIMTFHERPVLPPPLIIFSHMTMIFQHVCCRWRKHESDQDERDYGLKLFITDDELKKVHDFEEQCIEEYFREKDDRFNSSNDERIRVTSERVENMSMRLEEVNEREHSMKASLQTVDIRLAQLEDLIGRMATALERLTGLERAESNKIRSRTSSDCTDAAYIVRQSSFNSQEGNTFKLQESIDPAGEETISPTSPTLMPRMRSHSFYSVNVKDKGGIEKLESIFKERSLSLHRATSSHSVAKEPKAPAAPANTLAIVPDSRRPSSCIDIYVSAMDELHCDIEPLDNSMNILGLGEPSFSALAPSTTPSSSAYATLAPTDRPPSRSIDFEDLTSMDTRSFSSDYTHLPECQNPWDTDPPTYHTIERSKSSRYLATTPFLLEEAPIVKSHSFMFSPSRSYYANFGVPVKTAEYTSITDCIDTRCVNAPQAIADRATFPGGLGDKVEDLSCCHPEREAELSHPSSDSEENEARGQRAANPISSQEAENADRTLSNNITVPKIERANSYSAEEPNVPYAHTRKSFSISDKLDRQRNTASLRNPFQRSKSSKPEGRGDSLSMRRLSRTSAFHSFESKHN

| Compound | IC50 [µM] |
| --- | --- |
| Cc1nc(C(F)(F)F)c(COc2ccc3oc(C)c(C(=O)N[C@@H](CO)C(N)=O)c3c2)s1 [compound 282, (S)-N-(1-amino-3-hydroxy-1-oxopropan-2-yl)-2-methyl-5-((2-methyl-4-(trifluoromethyl)thiazol-5-yl)methoxy)benzofuran-3-carboxamide] | < 1 |
| Cc1oc2ccc(OCc3ccncn3)cc2c1C(=O)N[C@@H](CO)C(N)=O [compound 294, (S)-N-(1-amino-3-hydroxy-1-oxopropan-2-yl)-2-methyl-5-(pyrimidin-4-ylmethoxy)benzofuran-3-carboxamide] | < 1 |
| Cc1oc2ccc(OCc3ncsc3C)cc2c1C(=O)N[C@@H](CO)C(N)=O [compound 290, (S)-N-(1-amino-3-hydroxy-1-oxopropan-2-yl)-2-methyl-5-((5-methylthiazol-4-yl)methoxy)benzofuran-3-carboxamide] | < 1 |
| Cc1ncsc1COc1ccc2oc(C)c(C(N)=O)c2c1 [compound 232, 2-methyl-5-((4-methylthiazol-5-yl)methoxy)benzofuran-3-carboxamide] | < 1 |

Same assay, conditions: PS 50 μM, cpds 300-399

| Compound | IC50 [µM] |
| --- | --- |
| CNC(=O)C1(NC(=O)c2c(C)oc3ccc(OCc4ccccn4)cc23)CCC1 [compound 320, 2-methyl-N-(1-(methylcarbamoyl)cyclobutyl)-5-(pyridin-2-ylmethoxy)benzofuran-3-carboxamide] | < 1 |
| Cc1ncsc1COc1cc2c(C(=O)NC3(CO)CC3)c(C)oc2cc1F [compound 361, 6-fluoro-N-(1-(hydroxymethyl)cyclopropyl)-2-methyl-5-((4-methylthiazol-5-yl)methoxy)benzofuran-3-carboxamide] | < 1 |
| CNC(=O)[C@H](CO)NC(=O)c1c(C)oc2ccc(OCc3cnc(C)s3)cc12 [compound 305, (S)-N-(3-hydroxy-1-(methylamino)-1-oxopropan-2-yl)-2-methyl-5-((2-methylthiazol-5-yl)methoxy)benzofuran-3-carboxamide] | < 1 |
| Cc1ncsc1COc1ccc2oc(C)c(C(=O)NCc3cc[nH]n3)c2c1 [compound 374, N-((1H-pyrazol-3-yl)methyl)-2-methyl-5-((4-methylthiazol-5-yl)methoxy)benzofuran-3-carboxamide] | < 1 |
| Cc1oc2ccc(OCc3ccc(F)cn3)cc2c1C(=O)NC1(CO)CCOCC1 [compound 359, 5-((5-fluoropyridin-2-yl)methoxy)-N-(4-(hydroxymethyl)tetrahydro-2H-pyran-4-yl)-2-methylbenzofuran-3-carboxamide] | < 1 |
| Cc1ncc(COc2ccc3oc(C)c(C(=O)NC4(COC(F)F)CC4)c3c2)s1 [compound 399, N-(1-((difluoromethoxy)methyl)cyclopropyl)-2-methyl-5-((2-methylthiazol-5-yl)methoxy)benzofuran-3-carboxamide] | < 1 |

Same assay, conditions: PS (50 μM) stimulated, cpd 001-199

| Compound | pIC50 |
| --- | --- |
| Cc1ncsc1COc1ccc2oc(C)c(C(=O)NC3CCN(CCO)C3=O)c2c1 (single isomer, unassigned) [160-En 1, N-(1-(2-hydroxyethyl)-2-oxopyrrolidin-3-yl)-2-methyl-5-((4-methylthiazol-5-yl)methoxy)benzo-furan-3-carboxamide] | > 6.00 |
| Cc1oc2ccc(OCc3cccnc3C(F)(F)F)cc2c1C(=O)NC1CCNC1=O (centres unmarked) [compound 064, 2-methyl-N-(2-oxopyrrolidin-3-yl)-5-((2-(trifluoromethyl)pyridin-3-yl)methoxy)benzofuran-3-carboxamide] | > 6.00 |
| Cc1ncsc1COc1ccc2oc(C)c(C(=O)NC3CN(C(=O)OCC(F)(F)F)CC3(F)F)c2c1 (single isomer, unassigned) [172-En 1, 2,2,2-trifluoroethyl 3,3-difluoro-4-(2-methyl-5-((4-methylthiazol-5-yl)methoxy)benzofuran-3-carboxamido)pyrrolidine-1-carboxylate] | > 6.00 |
| Cc1ccc(COc2ccc3oc(C)c(C(=O)NC4CCOC4)c3c2)cn1 (centres unmarked) [compound 033, 2-methyl-5-((6-methylpyridin-3-yl)methoxy)-N-(tetrahydrofuran-3-yl)benzofuran-3-carboxamide] | < 4.70 |
| COc1ccncc1COc1ccc2oc(C)c(C(=O)NC3CCOC3)c2c1 (centres unmarked) [compound 040, 5-((4-methoxypyridin-3-yl)methoxy)-2-methyl-N-(tetrahydrofuran-3-yl)benzofuran-3-carboxamide] | < 4.70 |
| Cc1ncsc1COc1ccc2oc(C(F)F)c(C(=O)NC3CCN(CCO)C3=O)c2c1 (single isomer, unassigned) [198-En 1, 2-(difluoromethyl)-N-(1-(2-hydroxyethyl)-2-oxopyrrolidin-3-yl)-5-((4-methylthiazol-5-yl) -methoxy)benzofuran-3-carboxamide] | 4.70 to 6.00 |
| Cc1ncsc1COc1ccc2oc(C)c(C(=O)n3ccc(N)n3)c2c1 [compound 192, (3-amino-1H-pyrazol-1-yl) (2-methyl-5-((4-methylthiazol-5-yl)methoxy)benzofuran-3-yl) -methanone] | < 4.70 |
| Cc1oc2ccc(OCc3cccnc3C(F)(F)F)cc2c1C(=O)NC1COCC1O (single isomer, unassigned) [147-Dia 1-En 2, N-(4-hydroxytetrahydrofuran-3-yl)-2-methyl-5-((2-(trifluoromethyl)pyridin-3-yl)methoxy) -benzofuran-3-carboxamide] | > 6.00 |
| Cc1oc2ccc(OCc3cccnc3)cc2c1C(=O)NC1CCNC1=O (centres unmarked) [compound 027, 2-methyl-N-(2-oxopyrrolidin-3-yl)-5-(pyridin-3-ylmethoxy)benzofuran-3-carboxamide] | > 6.00 |
| Cc1oc2ccc(OCc3cccnc3C(F)(F)F)cc2c1C(=O)NC1CC2(COC2)C1 [compound 167, 2-methyl-N-(2-oxaspiro[3.3]heptan-6-yl)-5-((2-(trifluoromethyl)pyridin-3-yl)methoxy)benzofuran-3-carboxamide] | > 6.00 |
| Cc1oc2c(C#N)cc(OCc3cccnc3C(F)(F)F)cc2c1C(=O)NC1CCNCC1(F)F (single isomer, unassigned) [196-En 2, 7-cyano-N-(3,3-difluoropiperidin-4-yl)-2-methyl-5-((2-(trifluoro-methyl)pyridin-3-yl)methoxy)benzofuran-3-carboxamide] | 4.70 to 6.00 |
| Cc1oc2ccc(OCc3cccnc3C(F)(F)F)cc2c1C(=O)NC1(CO)CCOCC1 [compound 072, N-(4-(hydroxymethyl)tetrahydro-2H-pyran-4-yl)-2-methyl-5-((2-(trifluoromethyl)pyridin-3-yl) -methoxy)benzofuran-3-carboxamide] | > 6.00 |
| Cc1oc2ccc(OCc3cccnc3C(F)(F)F)cc2c1C(=O)OCC1(N)CCOC1 (centres unmarked) [compound 170, (3-aminotetrahydrofuran-3-yl)methyl 2-methyl-5-((2-(trifluoromethyl)pyridin-3-yl)methoxy) -benzofuran-3-carboxylate] | > 6.00 |

Same assay, conditions: PS (50 μM) stimulated, cpds. 400-499

| Compound | pIC50 |
| --- | --- |
| Cc1oc2ccc(OCc3cccnc3C(F)(F)F)cc2c1C(=O)NC(C)CO (single isomer, unassigned) [cpd 489-En 2] | > 6.00 |
| Cc1oc2ccc(OCc3ccccn3)cc2c1C(=O)NC1(C(N)=O)CC1 [compound 478, N-(1-carbamoylcyclopropyl)-2-methyl-5-(pyridin-2-ylmethoxy)benzofuran-3-carboxamide] | > 6.00 |
| Cc1oc2ccc(OCc3ccnn3C)cc2c1C(=O)NC(C)(C)C(N)=O [compound 438, N-(1-amino-2-methyl-1-oxopropan-2-yl)-2-methyl-5-((1-methyl-1H-pyrazol-5-yl)methoxy)benzofuran-3-carboxamide] | > 6.00 |

Same assay, conditions: PS (50 μM) stimulated, cpds. 500-599

| Compound | pIC50 |
| --- | --- |
| COc1ncccc1COc1ccc2oc(C)c(C(=O)NC3(CO)CCOC3)c2c1 (single isomer, unassigned) [cpd 536-En 1] | > 6.00 |
| Cc1ncsc1COc1cc2c(C(=O)NC3CCNCC3(F)F)c(C)oc2cc1F (single isomer, unassigned) [cpd 572-En 1] | > 6.00 |
| Cc1oc2ccc(OCc3cncs3)cc2c1C(=O)NC1CCNCC1(F)F (single isomer, unassigned) [cpd 561-En 1] | > 6.00 |
| Cc1oc2ccc(OCc3cccnc3C(F)F)cc2c1C(=O)NC1(C(N)=O)COC1 [compound 584, N-(3-carbamoyloxetan-3-yl)-5-((2-(difluoromethyl)pyridin-3-yl)methoxy)-2-methylbenzofuran-3-carboxamide] | > 6.00 |
| Cc1oc2ccc(OCc3cn(C)nn3)cc2c1C(=O)NC1CCNCC1(F)F (single isomer, unassigned) [cpd 540-En 1] | 4.70 to 6.00 |
| Cc1oc2ccc(OCc3cccnc3)cc2c1C(=O)NC1CCNCC1(F)F (single isomer, unassigned) [cpd 558-En 1] | > 6.00 |
| Cc1ncsc1COc1ccc2oc(C)c(C(=O)NC3CCNCC3(F)F)c2c1F (single isomer, unassigned) [cpd 562-En 1] | > 6.00 |
| Cc1coc(COc2ccc3oc(C)c(C(=O)NC4CCNCC4(F)F)c3c2)n1 (single isomer, unassigned) [cpd 551-En 1] | > 6.00 |

Same assay, conditions: PS (50 μM) stimulated, cpds. 608-666

| Compound | pIC50 |
| --- | --- |
| Cc1ncc(COc2ccc3oc(C)c(C(=O)NC4COCC4(F)F)c3c2)s1 (single isomer, unassigned) [cpd 643-En 1] | > 6.00 |
| Cc1oc2ccc(OCc3cccc(O)n3)cc2c1C(=O)NC1(CO)CCOCC1 [compound 630, N-(4-(hydroxymethyl)tetrahydro-2H-pyran-4-yl)-5-((6-hydroxypyridin-2-yl)methoxy)-2-methylbenzofuran-3-carboxamide] | < 4.70 |

Same assay, conditions: PS (50 μM) stimulated, cpds. 667-751

| Compound | pIC50 |
| --- | --- |
| Cc1ncsc1COc1ccc2oc(C3CC3)c(C(=O)N[C@@H](CO)C(N)=O)c2c1 [compound 748, (S)-N-(1-Amino-3-hydroxy-1-oxopropan-2-yl)-2-cyclopropyl-5-((4-methylthiazol-5-yl)methoxy)benzofuran-3-carboxamide] | > 6.00 |
| COc1ncccc1COc1ccc2oc(C)c(C(=O)N[C@@H](CO)C(N)=O)c2c1 [compound 715, (S)-N-(1-amino-3-hydroxy-1-oxopropan-2-yl)-5-((2-methoxypyridin-3-yl)methoxy)-2-methylbenzofuran-3-carboxamide] | > 6.00 |

From patent US12209081B2 (Katholieke Universiteit Leuven, priority 2020, dated 2025)
